Eight compounds from ChEMBL document CHEMBL1201862, “PubChem BioAssay data set” (2004) can be followed below.

Holding throughout (test): NCI tumour cell line growth inhibition, 48 h
In assay [1] the test system is UACC-257.
Assay [2] relates to A498.
Assay [3] deals with M19-MEL.
Assay [4] concerns UACC-62.
Assay [5] concerns SNB-19.
Assay [6] concerns NCI-H522.
Assay [7] deals with 786-0.
Assay [8] relates to EKVX.
The test system of assay [9] is HCT-15.
The test system of assay [10] is SW-620.
The test system of assay [11] is CCRF-CEM.
For assay [12], the system named is U-251.
The test system of assay [13] is HT-29.
Assay [14] has as its system SF-295.
The test system of assay [15] is ACHN.
Assay [16] concerns NCI-H460.
For assay [17], the system named is MOLT-4.
For assay [18], the system named is OVCAR-4.
Assay [19] concerns NCI-H226.
In assay [20] the test system is SR.

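Dose response: 5 concentrations. Exposure: 48 h. Format: 96-well plates. Endpoint: linear interpolation; highest concentration if not reached. GI50 marks 50% less growth.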 Active and inactive are the calls of the source. Rule as the data show it: active = GI50 up to about 1.1 µM and inactive = higher. Some results are limits rather than exact numbers.

With `CC1=N/C(=C\c2c(O)ccc3ccccc23)C(=O)O1`, the GI50 in assay [1], in assay [2], in assay [3], in [4], in [5] and in [6] was > 100 µM (inactive) throughout. Also, the GI50 in assay [7] is > 100 µM (inactive); in assay [8], > 100 µM (inactive); in assay [9], greater than 100 µM; in assay [10], > 100 µM (inactive); in [11], > 100 µM (inactive); in assay [12], > 100 µM (inactive). In addition, the GI50 in assay [13], in assay [14], in assay [15], in [16], in assay [17] and in assay [18] was > 100 µM (inactive) each time.
Regarding `[N-]=[N+]=NC1C2CC3CC(C2)CC1C3` (centres undefined), the GI50 in assay [19], in assay [1], in assay [2], in assay [3], in [4] and in assay [5] was > 100 µM (inactive) throughout. For the same compound, the GI50 in assay [6], in [7], in [8], in [10], in assay [11] and in assay [12] was > 100 µM (inactive) each time. The GI50 in assay [13], in [14], in assay [15], in assay [16], in [17] and in assay [18] was > 100 µM (inactive) each time. Moreover, the GI50 in [20] was > 100 µM (inactive).
As to `O=C(Nc1ccc(S(=O)(=O)N[C@@H](C(=O)O)c2ccccc2)cc1)c1ccc(F)cc1`, the GI50 in [1], in assay [2], in assay [3], in assay [4], in assay [5] and in [6] was > 100 µM (inactive) throughout. Further, the GI50 in assay [7] is > 100 µM (inactive); in assay [8] it was > 100 µM (inactive); in assay [9] it was greater than 100 µM; in assay [10] it was > 100 µM (inactive); in assay [11], > 100 µM (inactive); in assay [12] it was > 100 µM (inactive). Further, the GI50 in assay [13], in [14], in [15], in assay [16], in assay [17] and in assay [18] was > 100 µM (inactive) each time.
Turning to `COc1ccc(C(=O)C(c2ccc(OC)cc2)C2OC(=O)C(Cl)=C2Cl)cc1` (centres undefined), the GI50 in assay [19], in assay [1], in assay [3], in [4], in assay [5] and in assay [6] was > 100 µM (inactive) in each case. In addition, the GI50 in [7] is > 100 µM (inactive); in [8], > 100 µM (inactive); in assay [9], greater than 100 µM; in assay [10] it was > 100 µM (inactive); in assay [11], > 100 µM (inactive); in [12], > 100 µM (inactive). In addition, the GI50 in assay [13], in [14], in assay [15], in assay [16], in [17] and in [18] was > 100 µM (inactive) in each case. The GI50 in assay [20] is > 100 µM (inactive).
As to `OCC(O)C(OC1OC(CO)C(O)C(O)C1O)c1nn(-c2ccc(Cl)cc2)c2nc3cc(Cl)c(Cl)cc3nc12` (centres undefined), the GI50 in assay [1], in assay [2], in assay [3], in [4], in assay [5] and in [6] was > 100 µM (inactive) each time. Moreover, the GI50 in [7] was > 100 µM (inactive); in assay [8] it was > 100 µM (inactive); in assay [9], greater than 100 µM; in [11], > 100 µM (inactive); in [12], > 100 µM (inactive); in assay [13], > 100 µM (inactive). Also, the GI50 in assay [14], in [15], in [16], in assay [17], in assay [18] and in [20] was > 100 µM (inactive) throughout.
Take `CC(c1ccccc1)N1CC(C)(c2ccccc2)N(O)C(c2ccccc2)C1C` (centres undefined): the GI50 was 13.5 µM (inactive) in [1]; 18 µM (inactive) in [2]; > 10 µM (inactive) in assay [3]; 5.92 µM (inactive) in assay [5]; 6.4 µM (inactive) in assay [6]; 5.92 µM (inactive) in assay [7]. In addition, the GI50 was 13.5 µM (inactive) in assay [8]; 12.1 µM (inactive) in [10]; 5.66 µM (inactive) in [11]; 13.1 µM (inactive) in assay [12]; 23.4 µM (inactive) in assay [13]; 7.85 µM (inactive) in assay [14]. Also, the GI50 in [15] is 3.59 µM (inactive); in assay [16], 7.29 µM (inactive); in [17], 3.47 µM (inactive).
Turning to `Clc1ccc(OCCSCCCCCCCCCCSCCOc2ccc(Cl)cc2)cc1`, the GI50 in [19], in [1], in [2], in [3], in [4] and in [5] was > 100 µM (inactive) in each case. Also, the GI50 in [6] was > 100 µM (inactive); in assay [7], > 100 µM (inactive); in assay [8], > 100 µM (inactive); in assay [9], greater than 100 µM; in [10], > 100 µM (inactive); in assay [11], > 100 µM (inactive). Also, the GI50 in [12], in assay [13], in [14], in [15], in assay [16] and in assay [17] was > 100 µM (inactive) in each case.
Take `c1ccc(C2[C@@H]3CCCc4ccccc4C3=NN2c2ccccc2)cc1` (some centres undefined): the GI50 in assay [19] was > 100 µM (inactive); in assay [1], > 100 µM (inactive); in [2], > 100 µM (inactive); in assay [3], > 100 µM (inactive); in assay [5] it was > 100 µM (inactive); in [6] it was 35 µM (inactive). Moreover, the GI50 in assay [7] was > 100 µM (inactive); in assay [8] it was 46.8 µM (inactive); in [9] it was 52.5 µM; in assay [10], > 100 µM (inactive); in assay [11], 87.7 µM (inactive); in assay [12], > 100 µM (inactive). For the same compound, the GI50 was 61.7 µM (inactive) in assay [13]; > 100 µM (inactive) in assay [14]; > 100 µM (inactive) in [15]; > 100 µM (inactive) in assay [16]; 48.6 µM (inactive) in assay [17]; 49.5 µM (inactive) in assay [18]. Further, the GI50 in [20] is 91.6 µM (inactive).
